Source: patent publication US20240034999A1, “IMPROVED REPROGRAMMING, MAINTENANCE AND PRESERVATION FOR INDUCED PLURIPOTENT STEM CELLS” (Fate Therapeutics, Inc., priority 2020, published 2024)

System: Human T cells transfected with reprogramming plasmids
Assay: T cell reprogramming efficiency, flow cytometry of iPSC surface markers
Type: cell-based
Details: VPA from around day 2-3 post transfection; three T cell donors; versus no VPA
Description: Flow Cytometry Analysis and Sorting Single cell dissociated reprogramming pools were resuspended in chilled staining buffer. Conjugated primary antibodies, including SSEA4-FITC, TRA181-Alexa Fluor-647 and CD30-PE (BD Biosciences), were added to the cell solution and incubated on ice for 15 min. All antibodies were used at 7-10 μL in 100 μL staining buffer per million cells. The resuspended dissociated single cells in staining buffer were spun down and resuspended in staining buffer now containing a ROCK inhibitor and maintained on ice for flow cytometry sorting. Flow cytometry sorting was performed on FACS Aria II (BD Biosciences). The sorted cells were directly ejected into 96-well plates at concentrations of 3 and 9 events per well. Each well was prefilled with FMM2. Upon completion of the sort, 96-well plates were incubated for colony formation and expansion. Seven to ten days post sort, the cells were passaged. Subsequent passages in FMM2 were done routinely upon 75-90% confluency. Flow cytometry analysis was performed on Guava EasyCyte 8 HT (Millipore) and analyzed using FCS Express 4 (De Novo Software). Human T cells from three different donors were transfected with the above reprogramming plasmids on day 0. […] The expression of iPSC surface markers (SSEA4, TRA-1-81, and CD30) was analyzed by flow cytometry.

CCCC(CCC)C(=O)O [VPA, valproic acid]
percentage of SSEA4+TRA-1-81+CD30+ iPSC cells in the population: significantly increased
